In US20050137135A1 (priority 2002, published 2005):
“Also recorded” adds a separate entry of the source. Square brackets hold non-standard residues; d marks the D form. Ends that are not written are not given here. Peptide text beside a SMILES is read from it.

How the values were obtained:
[1] = molecular target: T1, DPIV (dipeptidyl peptidase IV) (Sus scrofa, UniProt P22411); experiment: Determination of DPIV resistance by MALDI-TOF mass spectrometry; assay type: in vitro ADME; conditions: purified kidney DPIV, 0.04 M Tris buffer pH 7.6, up to 24 h, MALDI-TOF MS; read-out: half life after incubation with DP IV
T1 construct: The hydrolysis of peptide analogues by purified kidney DPIV was studied as described previously [12]; from tissue; host or cells: kidney
Experimental: The hydrolysis of peptide analogues by purified kidney DPIV was studied as described previously. […] Samples were removed from the incubation mixture and prepared for MALDI-TOF mass spectrometry, as described in Pauly, […]., Pederson, R. A., and Demuth, H. U.

INS-1 (832/13) cells [2] = experiment: Cell survival during glucose deprivation (CYQUANT); assay type: cell-based; conditions: inhibitor added 15 min prior to final 24 h culture, 100 nM GIP
Experimental: (§1) Cell passages 45-60 were used.
Cells were seeded into 96-well plates (5×10^4 cells/well) prior to experimentation. […] Cells were quantified using the CYQUANT™ assay system (Molecular Probes, Eugene, Oreg., USA) according to the manufacturers' protocol.
Cell survival was assessed in the presence of prolonged glucose deprivation.

INS-1 (832/13) cells [3] = experiment: Glucose dependent β-cell proliferation (CYQUANT cell quantification); assay type: cell-based; conditions: 11 mM glucose, 10 nM, FIG. 15A
Experimental: as §1
Cells were seeded into 96-well plates (5×10^4 cells/well) prior to experimentation. […] Thereafter, cells were washed with KRBH (115 mM NaCl, 4.7 mM KCl, 1.2 mM KH2PO4, 10 mM NaHCO3, 1.28 mM CaCl2, 1.2 mM MgSO4 containing 10 mM HEPES and 0.1% bovine serum albumin, pH 7.4) and frozen at −70° C. until assayed. Cells were quantified using the CYQUANT™ assay system (Molecular Probes, Eugene, Oreg., USA) according to the manufacturers' protocol. Final cell numbers were always greater than the initial number plated in assessing cellular proliferation.

[4] = molecular target: T2, rat pancreatic islet (wild type) GIP-receptor stably expressed on CHO-K1 cells (rat) (UniProt P43219); experiment: displacement of 125I-GIP from intact CHO-K1 cells expressing rat GIP receptor, 10 µM peptide
T2 sequence (looked up): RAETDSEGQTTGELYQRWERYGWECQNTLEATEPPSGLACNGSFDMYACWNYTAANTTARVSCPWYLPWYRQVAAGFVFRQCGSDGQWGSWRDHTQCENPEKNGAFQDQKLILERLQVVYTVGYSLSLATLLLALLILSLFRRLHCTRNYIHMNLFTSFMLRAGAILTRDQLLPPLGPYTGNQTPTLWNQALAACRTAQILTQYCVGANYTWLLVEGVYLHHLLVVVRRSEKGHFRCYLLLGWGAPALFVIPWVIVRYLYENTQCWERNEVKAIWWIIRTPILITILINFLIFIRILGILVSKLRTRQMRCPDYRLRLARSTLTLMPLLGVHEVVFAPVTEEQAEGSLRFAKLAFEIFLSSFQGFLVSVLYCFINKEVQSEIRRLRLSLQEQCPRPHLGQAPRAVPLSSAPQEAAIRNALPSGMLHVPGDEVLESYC

[5] = molecular target: T3, rat pancreatic islet (wild type) GIP-receptor (Rattus norvegicus, UniProt P43219); experiment: cAMP production in CHO-K1 cells expressing the GIP-receptor (wtGIP-R1 cells); assay type: cell-based; conditions: basal cyclic AMP = 2.737 ± 0.079 fmol/1000 cells; for cAMP Production (Fold Basal) 10 μM: 10 μM peptide
T3 construct: expressed in transfected cells; host or cells: CHO-K1 (Chinese hamster ovary)
T3 sequence (P43219 19-455): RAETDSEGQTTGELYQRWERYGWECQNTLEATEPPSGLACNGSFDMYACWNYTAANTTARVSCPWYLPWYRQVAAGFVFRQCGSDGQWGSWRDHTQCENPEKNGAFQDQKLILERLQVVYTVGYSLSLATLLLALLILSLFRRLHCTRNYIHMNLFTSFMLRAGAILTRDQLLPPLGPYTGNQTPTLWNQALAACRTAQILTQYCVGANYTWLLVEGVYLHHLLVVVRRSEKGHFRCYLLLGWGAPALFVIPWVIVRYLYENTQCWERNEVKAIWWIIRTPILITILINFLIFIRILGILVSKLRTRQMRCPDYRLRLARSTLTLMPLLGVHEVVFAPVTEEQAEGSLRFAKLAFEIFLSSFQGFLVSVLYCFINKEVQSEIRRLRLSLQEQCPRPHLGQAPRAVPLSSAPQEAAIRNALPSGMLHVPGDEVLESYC
Experimental: (§2) Cells were cultured in DMEM/F12, supplemented with 10% newborn calf serum, 50 units/ml penicillin G, and 50 μg/ml streptomycin (Culture media and antibiotics from Gibco BRL, Life Technologies). Cells were grown in 75 cm^2 flasks until 80-90% confluent, when they were split and seeded onto 24 well plates at a density of 50,000 cells/well. Experiments were carried out 48 h later.
Cells were extracted with 70% ethanol and cAMP levels measured by radioimmunoassay (Biomedical Technologies, Stoughton, Mass.). Data are expressed as fmol/1000 cells or % maximal GIP1-42-stimulated cAMP production (inhibition experiments).

[6] = molecular target: T3, rat pancreatic islet (wild type) GIP-receptor; experiment: biochemical; assay type: binding
Experimental: as §2
Binding studies using ^125I-labeled spGIP1-42, purified by high performance liquid chromatography (HPLC), were performed essentially as described previously-[21]. wtGIP-R1 Cells (1-5×10^5/well) were washed twice at 4° C. in binding buffer (BB), consisting of DMEM/F12 (GIBCO), 15 mM HEPES, 0.1% bovine serum albumin (BSA), 1% Trasylol (aprotinin; Bayer), pH 7.4. They were incubated for 12-16 h at 4° C. with ^125I-spGIP (50,000 cpm) in the presence or absence of unlabeled GIP1-42 or analogue. Following incubation, cells were washed twice with ice cold buffer, solubilized with 0.1 M NaOH (1 ml), and transferred to culture tubes for counting of cell-associated radioactivity. Nonspecific binding was defined as that measured in the presence of 1 μM GIP1-42 or GIP1-30, and specific binding expressed as % of binding in the absence of competitor (% B/Bo).

T1 sequence (P22411 whole entry): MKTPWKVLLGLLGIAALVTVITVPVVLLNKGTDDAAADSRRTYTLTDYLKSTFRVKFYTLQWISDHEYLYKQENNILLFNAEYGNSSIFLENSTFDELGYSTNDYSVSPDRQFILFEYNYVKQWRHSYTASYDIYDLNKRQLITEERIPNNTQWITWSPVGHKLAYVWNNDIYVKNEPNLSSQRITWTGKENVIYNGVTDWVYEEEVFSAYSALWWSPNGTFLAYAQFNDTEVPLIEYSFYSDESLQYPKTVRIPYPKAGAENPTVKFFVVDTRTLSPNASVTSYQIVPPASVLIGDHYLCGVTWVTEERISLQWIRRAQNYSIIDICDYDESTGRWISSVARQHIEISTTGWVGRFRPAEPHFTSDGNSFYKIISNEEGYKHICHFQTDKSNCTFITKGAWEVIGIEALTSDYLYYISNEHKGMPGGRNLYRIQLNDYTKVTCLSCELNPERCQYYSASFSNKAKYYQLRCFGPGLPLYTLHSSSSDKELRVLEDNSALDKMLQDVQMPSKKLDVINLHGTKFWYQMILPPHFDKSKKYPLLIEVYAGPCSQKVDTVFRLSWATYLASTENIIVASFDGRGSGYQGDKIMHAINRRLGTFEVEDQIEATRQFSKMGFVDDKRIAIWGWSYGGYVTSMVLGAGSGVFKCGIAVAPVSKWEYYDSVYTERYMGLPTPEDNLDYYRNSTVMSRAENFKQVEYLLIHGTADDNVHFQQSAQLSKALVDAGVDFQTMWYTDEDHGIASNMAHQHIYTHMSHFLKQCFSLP

| Compound | half-life [1] [min] | effect of protein kinase inhibitor on GIP-mediated cell survival (INS-1 (832/13) cells [2]) | also measured |
| --- | --- | --- | --- |
| CC[C@H](C)[C@H](NC(=O)[C@H](CO)NC(=O)[C@H](Cc1ccc(O)cc1)NC(=O)[C@H](CC(=O)O)NC(=O)[C@H](CO)NC(=O)[C@@H](NC(=O)[C@H](Cc1ccccc1)NC(=O)[C@@H](NC(=O)CNC(=O)[C@@H](CCC(=O)O)NC(=O)[C@H](C)NC(=O)[C@@H](N)Cc1ccc(O)cc1)[C@@H](C)O)[C@@H](C)CC)C(=O)N[C@@H](C)C(=O)N[C@@H](CCSC)C(=O)N[C@@H](CC(=O)O)C(=O)N[C@@H](CCCCN)C(=O)N[C@H](C(=O)N[C@@H](CCCNC(=N)N)C(=O)N[C@@H](CCC(N)=O)C(=O)N[C@@H](CCC(N)=O)C(=O)N[C@@H](CC(=O)O)C(=O)N[C@@H](Cc1ccccc1)C(=O)N[C@H](C(=O)N[C@@H](CC(N)=O)C(=O)N[C@@H](Cc1c[nH]c2ccccc12)C(=O)N[C@@H](CC(C)C)C(=O)N[C@@H](CC(C)C)C(=O)N[C@@H](C)C(=O)N[C@@H](CCC(N)=O)C(=O)N[C@@H](CCCCN)C(N)=O)C(C)C)[C@@H](C)CC [D-Glu^3-GIP1-30] (H-YA[dE]GTFISDYSIAMDKIRQQDFVNWLLAQK-NH2; N-terminus and C-terminus assumed) | 40.3 ± 4.8 | – | – |
| O=S(=O)(NCCNC/C=C/c1ccc(Br)cc1)c1cccc2cnccc12 [H89] | – | lack of effect; also recorded: unable to reverse | – |
| COc1cccc(-c2cc(=O)c3ccccc3o2)c1N [PD98059] | – | Neither of the Mek1/2 inhibitors PD98059 (50 and 100 μM) nor U0126 (10 μM) blocked | – |
| Oc1ccc(-c2nc(-c3ccncc3)c(-c3ccc(F)cc3)[nH]2)cc1 [SB202190] | – | influenced GIP-mediated cell survival | – |
| N#CC(=C(/N)Sc1ccccc1N)/C(C#N)=C(\N)Sc1ccccc1N [U0126] | – | Neither of the Mek1/2 inhibitors PD98059 (50 and 100 μM) nor U0126 (10 μM) blocked | – |
| GH: GH, comparator for cell growth in INS-1 cells | – | – | cell proliferation, % of growth in the presence of 5.5 mM glucose (INS-1 (832/13) cells [3]): 158±9% |
| GIP 1-7NH2 (from UniProt P09681 52-58) (peptide) | – | – | % Displacement at 10 µM [4]: -6.1% |
| GIP 1-15OH (from UniProt P09681 52-66) (peptide) | – | – | % Displacement at 10 µM [4]: -3.1% |
| ISDYSIAMDKIRQQDFVNWLLAQK-NH2 [GIP7-30a, reference compound] | 130 ± 10.6 | – | cAMP Production (Fold Basal) 10 μM [5]: 0.89 ± 0.06 Fold Basal; cAMP Production (Fold Basal) 20 μM ([5]; 20 μM peptide): 0.85 ± 0.03 Fold Basal; Receptor Binding % Displacement at 10 μM ([6]; 10 μM peptide, 125I-GIP): 99.3 ± 1.0% |
| YAEGTF-NH2 [GIP1-6a] | > 7.5 | – | Receptor Binding % Displacement at 10 μM ([6]; 10000.0): −3.6 ± 7.8% |
| YAEGTFISDYSIAMDKIRQQDFVNWLLAQK-NH2 [GIP1-30a, reference compound] | < 15 | – | cAMP Production (Fold Basal) 10 μM [5]: 108 ± 12 Fold Basal; Receptor Binding % Displacement at 10 μM ([6]; 10 μM peptide, 125I-GIP): 99.8 ± 1.2% |
| YGEGTFISDYSIAMDKIRQQDFVNWLLAQK-NH2 [Gly^2-GIP1-30a] | 150 ± 27.3 | – | – |
